Assay results from PMC11597885, “Enhancing Antileishmanial Activity of Amidoxime-Based Compounds Bearing a 4,5-Dihydrofuran Scaffold: In Vitro Screening Against Leishmania amazonensis” (Molecules, 2024).
Like-named read-outs stand apart in the source and are kept apart here. Values belong to the compound of their own block, whether it stands above or below them.

What was measured:
[1] = test system: Leishmania amazonensis promastigotes, strain MHOM/BR/77/LTB0016; experiment: Antipromastigote activity assay (resazurin); type: cell-based; conditions: 72 h, mean ± SD from three independent experiments, read-out: Activity IC50 (µM/72 h), promastigote form of L. amazonensis
Experimental: Initially, compounds 14 to 25 were subjected to preliminary in vitro screening against Leishmania amazonensis promastigotes, strain MHOM/BR/77/LTB0016. The 50% growth inhibitory concentration (IC50) was measured after 72 h of cultivation with each compound using a resazurin assay conducted in independent triplicate experiments. […] Leishmania amazonensis (MHOM/BR/77/LTB0016) was cultured as promastigotes at 26 °C using Schneider’s insect medium (Sigma-Aldrich, St Louis, MO, USA), supplemented with 10% heat-inactivated fetal calf serum (HIFCS), 100 μg/mL streptomycin, and 100 U/mL penicillin. The parasites were sustained up to the 10th passage, after which fresh cultures were derived from infected host animals. L. amazonensis promastigotes were cultured in Schneider’s insect medium with 10% HIFCS, as described above, with or without various concentrations of test substances. The initial cell density was 1.0 × 10^6 cells/mL, and the culture was kept at 26 °C for 72 h. Resazurin reduction was used to evaluate the cell viability. The concentration required to inhibit 50% of the promastigote activity (IC50) was calculated using logarithmic regression analysis via GraphPrism 5 software.

[2] = Cytotoxicity assay (resazurin); type: cell-based; conditions: mouse, murine peritoneal macrophages, 0–200 µM tested, mean ± SD from three independent experiments
Experimental: Murine peritoneal macrophages were collected by flushing the peritoneal cavity with 5 mL of RPMI 1640 medium containing 10% HIFCS, 2 mM L-glutamine, 1 mM pyruvate, 100 μg/mL streptomycin, and 100 U/mL penicillin. The macrophage suspension was adjusted to 1.0 × 10^6 cells/mL and then plated in triplicate in 96-well plates (Falcon Co., Franklin Lakes, NJ, USA). Cultures were incubated at 37 °C in a 5% CO2 environment for 1 h. Nonadherent cells were subsequently removed, and the remaining cells were exposed to varying concentrations of test compounds (0–200 μM) for 72 h. Viability was assessed using a resazurin assay, and the concentration that caused 50% cytotoxicity (CC50) was determined using logarithmic regression analysis with GraphPrism 5 software.

[3] = test system: intracellular amastigote form of Leishmania amazonensis; experiment: Antiamastigote activity assay (infected peritoneal macrophages, infection index); type: cell-based; conditions: Macrophage, 72 h, L. amazonensis in murine macrophages, mean ± SD from three independent experiments, read-out: Intracellular Amastigotes IC50 (µM/72 h)
Experimental: Resident peritoneal macrophages were seeded in RPMI medium (Sigma-Aldrich) at 1 × 10^6 cells/mL (0.4 mL/well) on Lab-Tek eight-chamber slides (Nunc) and incubated at 37 °C in 5% CO2 for 1 h. After this period, nonadherent cells were removed, and the adherent macrophages were co-cultured with L. amazonensis promastigotes at a 5:1 parasite-to-cell ratio. After 4 h, the monolayers were washed to eliminate free parasites. Cells were then treated with different concentrations of the compounds and incubated for 72 h at 37 °C in 5% CO2. Following incubation, the slides were stained using the Instant Prov hematological dye (Newprov, Curitiba, Brazil), and antileishmanial activity was assessed microscopically. Amastigote numbers were determined by counting at least 100 macrophages per sample, and the results were expressed as an infection index (II), calculated as: II = (percentage of infected cells) × (number of amastigotes/total macrophages). Dose–response curves for the antiamastigote activity were generated using nonlinear regression in GraphPad Prism 5.0, and IC50 values were calculated.

[4] = test system: intracellular amastigote form of Leishmania amazonensis; parameters: method as in PMID 21555166, PMID 20833057; conditions: previously reported HIT; read-out: IC50 for the intracellular amastigote form of L. amazonensis; cited from earlier work

Structure (SMILES): CC1(Cc2ccccc2)CC(C(=O)Nc2cnccn2)=C(c2ccc(C(N)=NO)cc2)O1 (stereo not shown) [Compound 24, 5-Benzyl-2-(4-(N′-hydroxycarbamimidoyl)phenyl)-5-methyl-N-(pyrazin-2-yl)-4,5-dihydrofuran-3-carboxamide]
IC50 [1]: 39.4 ± 1.02 µM

Structure (SMILES): CC1(Cc2ccccc2)CC(C(=O)NCc2ccc(C(F)(F)F)cc2)=C(c2ccc(C(N)=NO)cc2)O1 (stereo not shown) [Compound 21, 5-Benzyl-2-(4-(N′-hydroxycarbamimidoyl)phenyl)-5-methyl-N-(4-(trifluoromethyl)benzyl)-4,5-dihydrofuran-3-carboxamide]
IC50 [1]: 26.4 ± 1.02 µM

Structure (SMILES): Cc1cc(NC(=O)C2=C(c3ccc(C(N)=NO)cc3)OC(C)(Cc3ccccc3)C2)nn1C (stereo not shown) [Compound 25, 5-Benzyl-N-(1,5-dimethyl-1H-pyrazol-3-yl)-2-(4-(N′-hydroxycarbamimidoyl)phenyl)-5-methyl-4,5-dihydrofuran-3-carboxamide]
IC50 [1]: 52.5 ± 1.03 µM

Structure (SMILES): CC1(Cc2ccccc2)CC(S(=O)(=O)c2ccc(F)cc2)=C(c2ccc(C(N)=NO)cc2)O1 (stereo not shown) [HIT, 4-(5-benzyl-3-((4-fluorophenyl)sulfonyl)-5-methyl-4,5-dihydrofuran-2-yl)-N′-hydroxybenzimidamide]
IC50 [4]: 7.9 ± 1.1 µM

Structure (SMILES): CC1(Cc2ccccc2)CC(C(=O)Nc2cccnn2)=C(c2ccc(C(N)=NO)cc2)O1 (stereo not shown) [Compound 22, 5-Benzyl-2-(4-(N′-hydroxycarbamimidoyl)phenyl)-5-methyl-N-(pyridazin-3-yl)-4,5-dihydrofuran-3-carboxamide]
IC50 [1]: 29.9 ± 1.02 µM

Structure (SMILES): CC1(Cc2ccccc2)CC(C(=O)Nc2ccc(Cl)nn2)=C(c2ccc(C(N)=NO)cc2)O1 (stereo not shown) [Compound 23, 5-Benzyl-N-(6-chloropyridazin-3-yl)-2-(4-(N′-hydroxycarbamimidoyl)phenyl)-5-methyl-4,5-dihydrofuran-3-carboxamide]
IC50 [1]: 36.4 ± 1.03 µM

Continued by falling IC50 [1], values first:

IC50 [1]: 23.8 ± 1.02 µM
Structure (SMILES): CC1(Cc2ccccc2)CC(C(=O)Nc2ccc(F)cc2)=C(c2ccc(C(N)=NO)cc2)O1 (stereo not shown) [Compound 20, 5-Benzyl-N-(4-fluorophenyl)-2-(4-(N′-hydroxycarbamimidoyl)phenyl)-5-methyl-4,5-dihydrofuran-3-carboxamide]

IC50 [1]: 23.8 ± 1.02 µM
Structure (SMILES): CC1(Cc2ccccc2)CC(C(=O)Nc2ccccc2)=C(c2ccc(C(N)=NO)cc2)O1 (stereo not shown) [Compound 19, 5-Benzyl-2-(4-(N′-hydroxycarbamimidoyl)phenyl)-5-methyl-N-phenyl-4,5-dihydrofuran-3-carboxamide]

IC50 [1]: 23.5 ± 1.04 µM
Structure (SMILES): CC1(Cc2ccccc2)CC(C(=O)Nc2ccncc2)=C(c2ccc(C(N)=NO)cc2)O1 (stereo not shown) [Compound 18, 5-Benzyl-2-(4-(N′-hydroxycarbamimidoyl)phenyl)-5-methyl-N-(pyridin-4-yl)-4,5-dihydrofuran-3-carboxamide]

IC50 [1]: 22.4 ± 1.02 µM
Structure (SMILES): CC1(Cc2ccccc2)CC(C(=O)Nc2ccccn2)=C(c2ccc(C(N)=NO)cc2)O1 (stereo not shown) [Compound 17, 5-Benzyl-2-(4-(N′-hydroxycarbamimidoyl)phenyl)-5-methyl-N-(pyridin-2-yl)-4,5-dihydrofuran-3-carboxamide]

IC50 [1]: 17 ± 1.02 µM
IC50 [3]: 0.3 ± 0.07 µM
Structure (SMILES): Cc1ccc(NC(=O)C2=C(c3ccc(C(N)=NO)cc3)OC(C)(Cc3ccccc3)C2)nc1 (stereo not shown) [Compound 16, 5-Benzyl-2-(4-(N′-hydroxycarbamimidoyl)phenyl)-5-methyl-N-(5-methylpyridin-2-yl)-4,5-dihydrofuran-3-carboxamide]
CC50 at 72 h [2]: > 200 µM

IC50 [1]: 16 ± 1.03 µM
IC50 [3]: 0.6 ± 0.2 µM
Structure (SMILES): CC1(Cc2ccccc2)CC(C(=O)Nc2ccc(Cl)cn2)=C(c2ccc(C(N)=NO)cc2)O1 (stereo not shown) [Compound 15, 5-Benzyl-N-(5-chloropyridin-2-yl)-2-(4-(N′-hydroxycarbamimidoyl)phenyl)-5-methyl-4,5-dihydrofuran-3-carboxamide]
CC50 at 72 h [2]: > 200 µM

IC50 [1]: 15 ± 1.03 µM
IC50 [3]: 0.5 ± 0.15 µM
Structure (SMILES): CC1(Cc2ccccc2)CC(C(=O)Nc2ccc(Br)cn2)=C(c2ccc(C(N)=NO)cc2)O1 (stereo not shown) [Compound 14, 5-Benzyl-N-(5-bromopyridin-2-yl)-2-(4-(N′-hydroxycarbamimidoyl)phenyl)-5-methyl-4,5-dihydrofuran-3-carboxamide]
CC50 at 72 h [2]: 171.5 ± 1.19 µM
